This is an account of results in ChEMBL document CHEMBL2331123, “Deuterated clopidogrel analogues as a new generation of antiplatelet agents” (ACS Med Chem Lett, 2013).

Assay [1] relates to Rattus norvegicus. As to the kind of experiment: Inhibition of ADP-induced platelet aggregation in Wistar rat blood at 10 mg/kg, po after 2 hrs by aggregometer analysis relative to vehicle-treated control.
The test system of assay [2] is Rattus norvegicus. As to the kind of experiment: Inhibition of ADP-induced platelet aggregation in Wistar rat blood at 10 mg/kg, po after 5 mins by aggregometer analysis relative to vehicle-treated control.

Regarding `[3H]C1([3H])c2ccsc2CCN1C(C(=O)OC)c1ccccc1Cl` (stereo not drawn), the aggregation at 10 mg/kg came to 50.4% in the assay with Rattus norvegicus [1] and 12.9% in the assay with Rattus norvegicus [2].

Regarding `COC(=O)C(c1ccccc1Cl)N1CCc2sccc2C1` (stereo not drawn), the aggregation at 10 mg/kg with Rattus norvegicus [1] amounted to 60.4%; in the assay with Rattus norvegicus [2] it was 29.4%.

Consider `[3H]C1([3H])c2ccsc2C([3H])([3H])C([3H])([3H])N1C(C(=O)OC)c1ccccc1Cl` (stereo not drawn), for which the aggregation at 10 mg/kg turned out to be 50.6% in the assay with Rattus norvegicus [1] and 7% in the assay on Rattus norvegicus [2].

On to `[3H]C1([3H])c2sccc2CN(C(C(=O)OC)c2ccccc2Cl)C1([3H])[3H]` (stereo not drawn), for which the aggregation at 10 mg/kg in the assay on Rattus norvegicus [1] stood at 49.1%; in the assay with Rattus norvegicus [2], 7.3%.
